Data on 14 compounds can be found in publication PMC7894522, “Structure Based Design of Bicyclic Peptide Inhibitors of RbAp48” (Angewandte Chemie (International Ed. in English), 2020).

Structures are written as SMILES. Starred links: 1 amine or outer side, 2 acyl side, 3 side chain; linkers in the order of their positions; H or OH if unused. Positions of bridges follow the written chain, without caps; N, C: chain ends. Residues, ends and D or L forms follow the SMILES beside them. TBMB = c1c(C[*:1])cc(C[*:3])cc1C[*:2]; mXylylene = c1cc(C[*:1])cc(C[*:2])c1; pXylylene = c1cc(C[*:2])ccc1C[*:1]; X4 = N#Cc1cc(C[*:1])cc(C[*:2])c1; X3 = COc1cc(C[*:1])cc(C[*:2])c1; X5 = Brc1cc(C[*:1])cc(C[*:2])c1

In this experiment the target is RbAp48 (Homo sapiens, UniProt Q09028). The experiment in a line: Competitive fluorescence polarization (FP) assay using complex of peptide 1 and RbAp48. As to conditions: for IC50: Supplemental Table 2, competitive FP, tracer 1 nM, RbAp48 15 nM, pH 7.5, 30 min room temperature, read-out: IC50; for FP activity in words: competitive FP assay. The experiment is classed as binding. Further details: Full length RbAp48 was cloned; His tag followed by 3C cleavage site (N, cleaved yes); made in house; host or cells: Sf9 insect cells. The procedure: The binding affinity of our library of synthetic cyclic peptides was evaluated by a competitive fluorescence polarization (FP) assay using a complex formed by peptide 1 and RbAp48. To reduce the length of the peptide it was truncated to the amino acids which seemed most critical according to the crystal structure (residues 676–689, pdb:4pbz). […] We chose to use a cyclization approach to regain affinity, that is, not to induce more interactions but through minimizing the entropic penalty upon binding by reducing the flexibility of the peptide. To this end two amino acids were chosen which are facing one another in the structure (see Figure 1 B/D/E). Two peptides were designed where glutamic acid was used in position 676 (4) or position 680 (5) and lysine in position 688 for both peptides (see Table 1). The macrocycles were formed by connecting the side chains via an amide bond (see Figure 1 D/E). Peptide synthesis was performed on Rink‐amide resin using the Fmoc‐strategy incorporating Fmoc‐L‐Glu(All)‐OH and Fmoc‐L‐Lys(Alloc)‐OH at the sites for cyclization. After completion of the linear synthesis the allyl protecting groups were removed using Pd^0 catalysis and the amide link was formed by using PyBOP. […] Therefore, a range of peptides was synthesized which were cyclized using the same amino acid positions but via a cysteine alkylation strategy (see Figure 1 D/E and Table 1). In this method the residues used for cyclization are replaced with cysteine and benzylic dibromides act as crosslinkers on the unprotected peptides. ^[11] Previous research has shown that such linkers can effectively stabilize cyclic peptides and yield high affinity ligands for protein–protein interaction inhibition. ^[12] Such a linker introduces a xylene group in close vicinity of the hydrophobic patch potentially reconstituting the lost key hydrophobic interactions. To explore a variety of macrocycle conformations we used either ortho‐, meta‐ or para‐substituted dibromides to exchange the linker in both 4 and 5 (see Figure 1 D/E and Table 1). ^[13]
Chain of RbAp48 (Q09028 whole entry, the tested form may be a part): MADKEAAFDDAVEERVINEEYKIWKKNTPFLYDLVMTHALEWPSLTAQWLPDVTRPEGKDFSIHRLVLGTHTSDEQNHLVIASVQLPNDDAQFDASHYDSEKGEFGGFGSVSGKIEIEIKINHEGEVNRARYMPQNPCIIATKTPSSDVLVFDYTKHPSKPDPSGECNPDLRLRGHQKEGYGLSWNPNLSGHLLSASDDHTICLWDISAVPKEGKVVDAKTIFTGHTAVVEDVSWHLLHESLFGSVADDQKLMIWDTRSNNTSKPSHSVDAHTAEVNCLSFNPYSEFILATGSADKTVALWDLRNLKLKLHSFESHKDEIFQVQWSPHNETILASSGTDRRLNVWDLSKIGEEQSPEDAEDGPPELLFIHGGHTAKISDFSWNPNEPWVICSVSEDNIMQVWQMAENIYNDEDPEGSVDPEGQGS
Protein expression and purification
RbAp48 was expressed and purified by the Dortmund Protein Facility. Full length RbAp48 was cloned into a pOPIN vector ligating it to an N-terminal His tag followed by a 3C cleavage site. The protein was expressed from Sf9 cells for 48 h. Cells were harvested and lysed and the protein was purified by loading onto a HisTrap FF crude 5 ml column followed by on-column cleavage using Precission protease. The cleaved protein was then further purified using a HiLoad 26/60 Superdex 200 column.
Fluorescence polarization assay
Fluorescence polarization assays were performed in 384 wells plates in 80 µl volumes. The assay buffer contains 20 mM Tris-HCl, 150 mM NaCl, 0.01% Tween-20 at pH 7.5. The concentration of the fluorescently labelled peptides was 1 nM plates were incubated at room temperature for 30 min before they were read on a Tecan Spark plate reader (λex = 485 nm, λem = 535 nm).
For competitive assays the same conditions were used with a tracer concentration of 1 nM was used and a protein concentration of 15 nM .

For orientation: IC50 means the concentration at which inhibition is half-maximal. As for `CC(=O)N[C@H]1CSCc2cccc(c2)CSC[C@@H](C(=O)N[C@@H](CC(N)=O)C(N)=O)NC(=O)[C@@H]2CCCN2C(=O)[C@H](CC(C)C)NC(=O)[C@H](Cc2ccc(O)cc2)NC(=O)[C@@H]2CCCN2C(=O)[C@H](Cc2c[nH]cn2)NC(=O)[C@H](CCCNC(=N)N)NC(=O)[C@H](C)NC(=O)[C@H](C)NC(=O)[C@H](Cc2c[nH]cn2)NC(=O)[C@H](Cc2c[nH]c3ccccc23)NC(=O)[C@@H]2CCCN2C1=O` [Peptide 18] (Ac-CPWHAARHPYLPCN-NH2; linker 1-13 via mXylylene), the IC50 is greater than 10000 nM.
Still for that read-out and setting: next, `CC(=O)N[C@H]1CSCc2ccc(cc2)CSC[C@@H](C(=O)N[C@@H](CC(N)=O)C(N)=O)NC(=O)[C@@H]2CCCN2C(=O)[C@H](CC(C)C)NC(=O)[C@H](Cc2ccc(O)cc2)NC(=O)[C@@H]2CCCN2C(=O)[C@H](Cc2c[nH]cn2)NC(=O)[C@H](CCCNC(=N)N)NC(=O)[C@H](C)NC(=O)[C@H](C)NC(=O)[C@H](Cc2c[nH]cn2)NC(=O)[C@H](Cc2c[nH]c3ccccc23)NC(=O)[C@@H]2CCCN2C1=O` [Peptide 19] (Ac-CPWHAARHPYLPCN-NH2; linker 1-13 via pXylylene): greater than 10000 nM.
With `CC(=O)N[C@H]1CSCc2cccc(c2)CSC[C@@H](C(=O)N[C@@H](C)C(N)=O)NC(=O)[C@@H]2CCCN2C(=O)[C@H](CCCCN)NC(=O)[C@H](Cc2ccc(O)cc2)NC(=O)[C@@H]2CCCN2C(=O)[C@H](CCCNC(=N)N)NC(=O)[C@H](CCCNC(=N)N)NC(=O)[C@H](C)NC(=O)[C@H](C)NC(=O)[C@H](CCCNC(=N)N)NC(=O)[C@H](CCCCN)NC(=O)[C@@H]2CCCN2C1=O` [Peptide 20] (Ac-CPKRAARRPYKPCA-NH2; linker 1-13 via mXylylene), the IC50 was found to be 22.3 ± 0.03 nM; the “FP activity in words” value is “IC50 values similar to those of 7 and 8”.
Take `CC(=O)N[C@H]1CSCc2ccc(cc2)CSC[C@@H](C(=O)N[C@@H](C)C(N)=O)NC(=O)[C@@H]2CCCN2C(=O)[C@H](CCCCN)NC(=O)[C@H](Cc2ccc(O)cc2)NC(=O)[C@@H]2CCCN2C(=O)[C@H](CCCNC(=N)N)NC(=O)[C@H](CCCNC(=N)N)NC(=O)[C@H](C)NC(=O)[C@H](C)NC(=O)[C@H](CCCNC(=N)N)NC(=O)[C@H](CCCCN)NC(=O)[C@@H]2CCCN2C1=O` [Peptide 21] (Ac-CPKRAARRPYKPCA-NH2; linker 1-13 via pXylylene): the IC50 was determined as 25 ± 7.3 nM; the “FP activity in words” value is “IC50 values similar to those of 7 and 8”.
Regarding `CC(=O)N[C@H]1CSCc2cccc(c2)CSC[C@@H](C(=O)N[C@@H](C)C(N)=O)NC(=O)[C@@H]2CCCN2C(=O)[C@H](CCCCN)NC(=O)[C@H](Cc2ccc(O)cc2)NC(=O)[C@@H]2CCCN2C(=O)[C@H](CCCNC(=N)N)NC(=O)[C@H](CCCNC(=N)N)NC(=O)[C@H](C)NC(=O)[C@H](C)NC(=O)[C@H](CCCNC(=N)N)NC(=O)[C@H](Cc2c[nH]c3ccccc23)NC(=O)[C@H]([C@@H](C)O)NC1=O` [Peptide 22] (Ac-CTWRAARRPYKPCA-NH2; linker 1-13 via mXylylene), the IC50 came out at 315 ± 57.8 nM.
Still for that read-out and setting: the figure for `CC(=O)N[C@H]1CSCc2ccc(cc2)CSC[C@@H](C(=O)N[C@@H](C)C(N)=O)NC(=O)[C@@H]2CCCN2C(=O)[C@H](CCCCN)NC(=O)[C@H](Cc2ccc(O)cc2)NC(=O)[C@@H]2CCCN2C(=O)[C@H](CCCNC(=N)N)NC(=O)[C@H](CCCNC(=N)N)NC(=O)[C@H](C)NC(=O)[C@H](C)NC(=O)[C@H](CCCNC(=N)N)NC(=O)[C@H](Cc2c[nH]c3ccccc23)NC(=O)[C@H]([C@@H](C)O)NC1=O` [Peptide 23] (Ac-CTWRAARRPYKPCA-NH2; linker 1-13 via pXylylene) is 245 ± 29.3 nM; for `CC(=O)N[C@H]1CSCc2cccc(c2)CSC[C@@H](C(=O)N[C@@H](C)C(N)=O)NC(=O)[C@@H]2CCCN2C(=O)[C@H](CCCCN)NC(=O)[C@H](Cc2ccc(O)cc2)NC(=O)[C@@H]2CCCN2C(=O)[C@H](CCCNC(=N)N)NC(=O)[C@H](CCCNC(=N)N)NC(=O)[C@H](C)NC(=O)[C@H](C)NC(=O)[C@H](Cc2c[nH]cn2)NC(=O)[C@H](CCCCN)NC(=O)[C@H]([C@@H](C)O)NC1=O` [Peptide 24] (Ac-CTKHAARRPYKPCA-NH2; linker 1-13 via mXylylene) it is 265 ± 7.4 nM.
On to `CC(=O)N[C@H]1CSCc2ccc(cc2)CSC[C@@H](C(=O)N[C@@H](C)C(N)=O)NC(=O)[C@@H]2CCCN2C(=O)[C@H](CCCCN)NC(=O)[C@H](Cc2ccc(O)cc2)NC(=O)[C@@H]2CCCN2C(=O)[C@H](CCCNC(=N)N)NC(=O)[C@H](CCCNC(=N)N)NC(=O)[C@H](C)NC(=O)[C@H](C)NC(=O)[C@H](Cc2c[nH]cn2)NC(=O)[C@H](CCCCN)NC(=O)[C@H]([C@@H](C)O)NC1=O` [Peptide 25] (Ac-CTKHAARRPYKPCA-NH2; linker 1-13 via pXylylene), for which the IC50 came to 303 ± 85.9 nM.
The same measure, in the same setting: next, `CC(=O)N[C@H]1CSCc2cccc(c2)CSC[C@@H](C(=O)N[C@@H](C)C(N)=O)NC(=O)[C@@H]2CCCN2C(=O)[C@H](CCCCN)NC(=O)[C@H](Cc2ccc(O)cc2)NC(=O)[C@@H]2CCCN2C(=O)[C@H](Cc2c[nH]cn2)NC(=O)[C@H](CCCNC(=N)N)NC(=O)[C@H](C)NC(=O)[C@H](C)NC(=O)[C@H](CCCNC(=N)N)NC(=O)[C@H](CCCCN)NC(=O)[C@H]([C@@H](C)O)NC1=O` [Peptide 26] (Ac-CTKRAARHPYKPCA-NH2; linker 1-13 via mXylylene): 512 ± 48.4 nM.
The same measure, in the same setting: the figure for `CC(=O)N[C@H]1CSCc2ccc(cc2)CSC[C@@H](C(=O)N[C@@H](C)C(N)=O)NC(=O)[C@@H]2CCCN2C(=O)[C@H](CCCCN)NC(=O)[C@H](Cc2ccc(O)cc2)NC(=O)[C@@H]2CCCN2C(=O)[C@H](Cc2c[nH]cn2)NC(=O)[C@H](CCCNC(=N)N)NC(=O)[C@H](C)NC(=O)[C@H](C)NC(=O)[C@H](CCCNC(=N)N)NC(=O)[C@H](CCCCN)NC(=O)[C@H]([C@@H](C)O)NC1=O` [Peptide 27] (Ac-CTKRAARHPYKPCA-NH2; linker 1-13 via pXylylene) is 335 ± 65 nM; for `COc1cc2cc(c1)CSC[C@@H](C(=O)N[C@@H](C)C(N)=O)NC(=O)[C@@H]1CCCN1C(=O)[C@H](CCCCN)NC(=O)[C@H](Cc1ccc(O)cc1)NC(=O)[C@@H]1CCCN1C(=O)[C@H](CCCNC(=N)N)NC(=O)[C@H](CCCNC(=N)N)NC(=O)[C@H](C)NC(=O)[C@H](C)NC(=O)[C@H](CCCNC(=N)N)NC(=O)[C@H](CCCCN)NC(=O)[C@H]([C@@H](C)O)NC(=O)[C@@H](NC(C)=O)CSC2` [Peptide 28] (Ac-CTKRAARRPYKPCA-NH2; linker 1-13 via X3 (inferred)) it is 38.4 ± 3.8 nM.
Same read-out and setting: the figure for `CC(=O)N[C@H]1CSCc2cc(C#N)cc(c2)CSC[C@@H](C(=O)N[C@@H](C)C(N)=O)NC(=O)[C@@H]2CCCN2C(=O)[C@H](CCCCN)NC(=O)[C@H](Cc2ccc(O)cc2)NC(=O)[C@@H]2CCCN2C(=O)[C@H](CCCNC(=N)N)NC(=O)[C@H](CCCNC(=N)N)NC(=O)[C@H](C)NC(=O)[C@H](C)NC(=O)[C@H](CCCNC(=N)N)NC(=O)[C@H](CCCCN)NC(=O)[C@H]([C@@H](C)O)NC1=O` [Peptide 29] (Ac-CTKRAARRPYKPCA-NH2; linker 1-13 via X4 (inferred)) is 43.8 ± 4.7 nM; for `CC(=O)N[C@H]1CSCc2cc(Br)cc(c2)CSC[C@@H](C(=O)N[C@@H](C)C(N)=O)NC(=O)[C@@H]2CCCN2C(=O)[C@H](CCCCN)NC(=O)[C@H](Cc2ccc(O)cc2)NC(=O)[C@@H]2CCCN2C(=O)[C@H](CCCNC(=N)N)NC(=O)[C@H](CCCNC(=N)N)NC(=O)[C@H](C)NC(=O)[C@H](C)NC(=O)[C@H](CCCNC(=N)N)NC(=O)[C@H](CCCCN)NC(=O)[C@H]([C@@H](C)O)NC1=O` [Peptide 30] (Ac-CTKRAARRPYKPCA-NH2; linker 1-13 via X5 (inferred)) it is 31 ± 3.7 nM.
Take `CC(=O)N[C@H]1CSCc2cc(C)cc(c2)CSC[C@@H](C(=O)N[C@@H](C)C(N)=O)NC(=O)[C@@H]2CCCN2C(=O)[C@H](CCCCN)NC(=O)[C@H](Cc2ccc(O)cc2)NC(=O)[C@@H]2CCCN2C(=O)[C@H](CCCNC(=N)N)NC(=O)[C@H](CCCNC(=N)N)NC(=O)[C@H](C)NC(=O)[C@H](C)NC(=O)[C@H](CCCNC(=N)N)NC(=O)[C@H](CCCCN)NC(=O)[C@H]([C@@H](C)O)NC1=O` [Peptide 31] (Ac-CTKRAARRPYKPCA-NH2; linker 1-13 via TBMB (inferred)): the half-maximal inhibitory concentration (IC50) is 40.4 ± 1.5 nM.
